In brackets after ≈: the same amount, converted by molar mass. Entries after “also recorded” stand apart in the source; their conditions may differ. Marks after values point to notes of the source that are not given here.
Assays:
[1] = Solubility in water containing 1% DMSO (UV spectroscopy); type: physicochemical; conditions: organic solvent or mixture; water containing 1% DMSO
Description: Solubility of MA1-6 and HA2-6 were determined as reported^46 (Table 1).
General considerations. ^1H-NMR and ^13C-NMR spectra were recorded on Bruker Avance Neo 400 and Avance II 700 spectrometers using TMS or appropriate solvent signals as internal standard. The chemical shift values are given in parts per million (ppm) relative to the internal standard used and the coupling constants (J) are given in hertz (Hz). High resolution mass spectra (HRMS) were recorded using Waters AutoSpec-Ultima™ NT magnetic sector mass spectrometer with Electron Impact (EI) Ionization source. The mass analyzer is an electric-magnetic-electric (EBE) sector (a double focusing sector). Anhydrous solvents used for reactions were purchased in Sure-Seal™ bottles from Aldrich chemical company. Other chemical reagents were purchased from Aldrich or Fisher chemical companies and used as received. Reactions were monitored with thin layer chromatography (TLC), which was done on silica gel plates with fluorescent indicator (Silicycle, silica gel, UV254, 25 μm plates). The TLC spots were observed under UV light with the wavelengths 254 nm and 365 nm. The reaction mixtures were purified by column chromatography using Si gel (32-63 μm) from Dynamic Absorbent, Inc. Melting points were determined on a Mel-Temp II melting point apparatus and are uncorrected. All tested compounds have ≥95% purity as determined by HPLC. HPLC traces were obtained using Shimadzu SPD-M20A. Solubility of compounds were determined by UV-spectroscopy method using Agilent Cary 60 UV-Vis spectrophotometer. HPLC analysis of the final compounds were conducted using Kinetex 5 μm C18 100 Å, LC Column 150×4.6 mm, compound=3 mM, 20 μL injection, solvent: mobile phase buffer, Conditions: 60% MeCN/40% H2O/0.1% Formic acid (isocratic), HPLC method 0-10 min, Signals were analyzed using a 254 nm UV detector. A chromatogram of Mobile Phase Buffer (20 μL) was obtained for comparison.

S. mutans UA159 = test: Gnotobiotic rat model of dental caries (HEBI / HA5 study, Example 1); type: in vivo, Fischer 344 rats infected with S. mutans UA159; parameters: key to Buccal Mean Caries Scores (±SEM) E / Buccal Mean Caries Scores (±SEM) Ds / Buccal Mean Caries Scores (±SEM) Dm / Buccal Mean Caries Scores (±SEM) Dx / Sulcal Mean Caries Scores (± SEM) E / Sulcal Mean Caries Scores (± SEM) Ds / Sulcal Mean Caries Scores (± SEM) Dm / Sulcal Mean Caries Scores (± SEM) Dx / Proximal Mean Caries Scores (± SEM) E: caries scores by the method of Keyes; conditions: for CFU/mL BAP: Blood Agar Plates; for CFU/mL BAP / CFU/mL MS / Buccal Mean Caries Scores (±SEM) Dx / Sulcal Mean Caries Scores (± SEM) Dx / Buccal Mean Caries Scores (±SEM) Dm / Sulcal Mean Caries Scores (± SEM) Dm / Buccal Mean Caries Scores (±SEM) Ds / Sulcal Mean Caries Scores (± SEM) Ds / Buccal Mean Caries Scores (±SEM) E / Proximal Mean Caries Scores (± SEM) E / Sulcal Mean Caries Scores (± SEM) E: 100 μM (NaF 250 ppm), 4 weeks; for CFU/mL MS: Mitis Salivarius agar; for Buccal Mean Caries Scores (±SEM) Dx / Sulcal Mean Caries Scores (± SEM) Dx: dentinal extensive; for Buccal Mean Caries Scores (±SEM) Dx / Sulcal Mean Caries Scores (± SEM) Dx / Buccal Mean Caries Scores (±SEM) Dm / Sulcal Mean Caries Scores (± SEM) Dm / Buccal Mean Caries Scores (±SEM) Ds / Sulcal Mean Caries Scores (± SEM) Ds / Buccal Mean Caries Scores (±SEM) E / Proximal Mean Caries Scores (± SEM) E / Sulcal Mean Caries Scores (± SEM) E: topical twice daily; for Buccal Mean Caries Scores (±SEM) Dm / Sulcal Mean Caries Scores (± SEM) Dm: dentinal moderate; for Buccal Mean Caries Scores (±SEM) Ds / Sulcal Mean Caries Scores (± SEM) Ds: dentinal slight; for Buccal Mean Caries Scores (±SEM) E / Proximal Mean Caries Scores (± SEM) E / Sulcal Mean Caries Scores (± SEM) E: enamel
Description: Reduction of S. mutans virulence in vivo by HA5 or HEBI. The effects of compound HA5 and HEBI on S. mutans virulence were evaluated using a well-established gnotobiotic rat model of dental caries 67. Hydrogel microparticles with no drug were used to ensure that the observed anti-virulence activity observed with HEBI was not related to the hydrogel material. The standard NaF (250 ppm) was included as a positive control. A (vehicle+infection only) group was included as a negative control. All rats in the experimental groups and control groups were colonized with S. mutans UA159. […] Similar reductions in caries scores were also observed in proximal enamel caries scores (Table 3). An evaluation of the effect of the treatment on proximal dentinal scores was unable to be performed as there were no significant proximal dentinal lesions for the control and treated groups in this study. […] The observed reduction in caries scores by HA5 and HEBI were similar with HEBI displaying slightly better in vivo activity, possibly due to the pH-dependent slow release. The observed reduction in caries scores by HA5 or HEBI is lower than the 250 ppm NaF treatment. However, it should be noted that the concentration of NaF (250 ppm=5.95 mM) is about 59-fold higher than HA5 (100 μM). At the end of the study, the animals were euthanized, their mandibles excised for microbiological analysis of plaque samples on MS agar plates and BAP and for scoring of caries by the method of Keyes^68 to determine the bacterial colonization. […] All in vivo experimental protocols were approved by the University of Alabama at Birmingham Institutional Animal Care and Use Committee (protocol No: IACUC-20047). The methods were carried out in accordance with the relevant guidelines and regulations.
Rat model of dental caries. In vivo studies of colonization and virulence of S. mutans were evaluated using a previously reported rat model of dental caries^71. Offspring of gnotobiotic Fischer 344 rats used in this experiment were bred and maintained in trexler isolators. Male and female rat pups were removed from isolators at 20 days of age and randomly assigned into 5 treatment groups of 5 rats/group in cages with filter tops. Rats were then infected with S. mutans UA159 strain by oral swabbing daily for four consecutive days with a fresh overnight culture of S. mutans UA159. Rats were provided with caries promoting Teklad Diet 305 containing […] (Harlan Laboratories, Inc., Indianapolis, IN) and sterile drinking water ad libitum. Oral swabs were taken 5 days post-infection and plated on Todd Hewitt (TH) agar plates and incubated at 37° C. in an environment of 5% CO2 in the air to confirm colonization. Rats were weighed at weaning and at the termination of the experiment. One-week post-infection, the molars of the rats were treated topically twice daily for 4 weeks with the test compounds using camel-hair brushes. The five treatment groups used in this study were: 1) HEBI (100 μM); 2) HA5 (100 μM); 3) hydrogel encapsulated PBS (no drug) containing 0.1% DMSO (negative control), 4) 250 ppm NaF (positive control) and 5) infected untreated group (negative control). Drinking water was withheld for 60 min following each treatment with the compound. Animals were weighed at weaning and at the termination of the experiment. On day 60, the rats were sacrificed using CO2 followed by cervical dislocation or bilateral thoracotomy. The mandibles were surgically removed and cleaned of excess tissue to assess the level of bacteria present and the extent of caries formation. The right mandibles from each rat were placed in a tube containing phosphate buffer (3 mL), placed on ice and sonicated (10 sec) to release bacteria from the molars. Each sample was serially diluted, plated on blood agar plates (BAP) and mitis-salivarius (MS) agar plates and incubated in an environment of 5% CO2 at 37° C. to quantify the level of total bacteria and S. mutans present in the plaque. […]

Compound | solubility [1] | effect on bacterial colonization (S. mutans UA159; 4-week treatment, 100 μM) | reduction in caries scores (S. mutans UA159; 4-week treatment, 100 μM) | CFU/mL BAP (S. mutans UA159) | CFU/mL MS (S. mutans UA159) | Buccal Mean Caries Scores (±SEM) Dx (S. mutans UA159) | Sulcal Mean Caries Scores (± SEM) Dx (S. mutans UA159) | Buccal Mean Caries Scores (±SEM) Dm (S. mutans UA159) | Sulcal Mean Caries Scores (± SEM) Dm (S. mutans UA159) | Buccal Mean Caries Scores (±SEM) Ds (S. mutans UA159) | Sulcal Mean Caries Scores (± SEM) Ds (S. mutans UA159) | Buccal Mean Caries Scores (±SEM) E (S. mutans UA159) | Proximal Mean Caries Scores (± SEM) E (S. mutans UA159) | Sulcal Mean Caries Scores (± SEM) E (S. mutans UA159)
O=C1/C(=C/c2cc(O)c(O)cc2O)Oc2ccccc21 [HA5, 2-[(2′,4′,5′-Trihydroxyphenyl)methylidene]-2,3-dihydro-1-benzofuran-3-one] | 120 µg/mL (≈ 444 µM) | not significant; also recorded: without affecting the bacterial colonization significantly | significant reduction in buccal, sulcal, and proximal dental caries scores | 3.0 ± 1.0 CFU/mL (×10^6) | 2.5 ± 0.8 CFU/mL (×10^6) | 2.0 ± 0.7 | 4.4 ± 0.9 | 3.8 ± 0.2 | 8.8 ± 0.9 | 6.0 ± 0.4 | 16.2 ± 0.4 | 11.0 ± 0.3 | 4.0 ± 0.0 | 22.0 ± 0.6
O=C1/C(=C/c2cc(O)c(O)c(O)c2)Oc2ccccc21 [HA6, 2-[(3′,4′,5′-Trihydroxyphenyl)methylidene]-2,3-dihydro-1-benzofuran-3-one] | 90.8 µg/mL (≈ 336 µM) | – | – | – | – | – | – | – | – | – | – | – | – | –
[F-].[Na+] [NaF, reference compound] | – | – | – | 4.0 ± 0.9 CFU/mL (×10^6) | 3.4 ± 0.5 CFU/mL (×10^6) | 0.0 ± 0.0 | 1.0 ± 0.3 | 1.0 ± 0.8 | 4.6 ± 0.2 | 2.4 ± 0.8 | 11.2 ± 0.4 | 5.0 ± 0.7 | 1.2 ± 0.8 | 14.2 ± 0.7
